Measurements taken from ChEMBL document CHEMBL1687756 (Antimicrob Agents Chemother, 2010).

Legend:
[1] = Tmax in Beagle dog at 5 mg/kg administered intramuscularly after 176 days; type: ADME, organism-based, Canis lupus familiaris; parameters: dose 5 mg/kg, route intramuscular; details: in vivo, im
[2] = Drug level in Beagle dog muscle at injected site at 5 mg/kg, sc after 6 months; type: ADME, organism-based, Canis lupus familiaris, Muscle tissue; parameters: dose 5 mg/kg, route subcutaneous; details: read-out: Drug uptake
[3] = Drug level in Beagle dog muscle at non-injected site at 5 mg/kg administered intramuscularly after 3 months; type: ADME, organism-based, Canis lupus familiaris, Muscle tissue; parameters: dose 5 mg/kg, route intramuscular; details: im, read-out: Drug uptake
[4] = Drug level in Beagle dog muscle at non-injected site at 5 mg/kg, sc after 6 months; type: ADME, organism-based, Canis lupus familiaris, Muscle tissue; parameters: dose 5 mg/kg, route subcutaneous; details: read-out: Drug uptake
[5] = Drug level in Beagle dog skin at non-injected site at 5 mg/kg administered intramuscularly after 3 months; type: ADME, organism-based, Canis lupus familiaris, Zone of skin; parameters: dose 5 mg/kg, route intramuscular; details: im, read-out: Drug uptake
[6] = Drug level in female Beagle dog spleen at 200 mg/kg administered intramuscularly after 3 months; type: ADME, organism-based, Canis lupus familiaris; parameters: dose 200 mg/kg, route intramuscular; details: im, read-out: Drug uptake
[7] = Drug level in female Beagle dog thymus at 400 mg/kg administered intramuscularly after 3 months; type: ADME, organism-based, Canis lupus familiaris; parameters: dose 400 mg/kg, route intramuscular; details: im, read-out: Drug uptake
[8] = Ratio of drug level in spleen to plasma in male Beagle dog at 400 mg/kg administered intramuscularly after 1 month; type: ADME, organism-based, Canis lupus familiaris; parameters: dose 400 mg/kg, route intramuscular; details: im
[9] = Ratio of drug level in thymus to plasma in male Beagle dog at 200 mg/kg, sc after 1 month; type: ADME, organism-based, Canis lupus familiaris; parameters: dose 200 mg/kg, route subcutaneous
[10] = Ratio of drug level in thymus to plasma in male Beagle dog at 400 mg/kg administered intramuscularly after 1 month; type: ADME, organism-based, Canis lupus familiaris; parameters: dose 400 mg/kg, route intramuscular; details: im
[11] = Drug level in Beagle dog liver at 5 mg/kg administered intramuscularly after 3 months; type: ADME, organism-based, Canis lupus familiaris; parameters: dose 5 mg/kg, route intramuscular; details: im, read-out: Drug uptake
[12] = Drug level in Beagle dog liver at 5 mg/kg, sc after 3 months; type: ADME, organism-based, Canis lupus familiaris; parameters: dose 5 mg/kg, route subcutaneous; details: read-out: Drug uptake
[13] = Ratio of drug level in liver to plasma in Beagle dog at 5 mg/kg, sc after 3 months; type: ADME, organism-based, Canis lupus familiaris; parameters: dose 5 mg/kg, route subcutaneous
[14] = Drug level in Beagle dog lymph node mandibular at 5 mg/kg administered intramuscularly after 3 months; type: ADME, organism-based, Canis lupus familiaris; parameters: dose 5 mg/kg, route intramuscular; details: im, read-out: Drug uptake
[15] = Drug level in Beagle dog lymph node mandibular at 5 mg/kg, sc after 6 months; type: ADME, organism-based, Canis lupus familiaris; parameters: dose 5 mg/kg, route subcutaneous; details: read-out: Drug uptake
[16] = Ratio of drug level in lymph node mandibular to plasma in Beagle dog at 5 mg/kg, sc after 6 months; type: ADME, organism-based, Canis lupus familiaris; parameters: dose 5 mg/kg, route subcutaneous
[17] = Drug level in Beagle dog spleen at 5 mg/kg, sc after 6 months; type: ADME, organism-based, Canis lupus familiaris; parameters: dose 5 mg/kg, route subcutaneous; details: read-out: Drug uptake
[18] = Drug level in Beagle dog thymus at 5 mg/kg, sc after 3 months; type: ADME, organism-based, Canis lupus familiaris; parameters: dose 5 mg/kg, route subcutaneous; details: read-out: Drug uptake
[19] = Plasma concentration in male Beagle dog at 200 mg/kg, sc after 1 month; type: ADME, organism-based, Canis lupus familiaris; parameters: dose 200 mg/kg, route subcutaneous
[20] = Drug level in male Beagle dog thymus at 400 mg/kg, sc after 1 month; type: ADME, organism-based, Canis lupus familiaris; parameters: dose 400 mg/kg, route subcutaneous; details: read-out: Drug uptake
[21] = Drug level in female Beagle dog spleen at 200 mg/kg administered intramuscularly after 1 month; type: ADME, organism-based, Canis lupus familiaris; parameters: dose 200 mg/kg, route intramuscular; details: im, read-out: Drug uptake
[22] = Drug level in female Beagle dog thymus at 200 mg/kg administered intramuscularly after 1 month; type: ADME, organism-based, Canis lupus familiaris; parameters: dose 200 mg/kg, route intramuscular; details: im, read-out: Drug uptake
[23] = Ratio of drug level in thymus to plasma in female Beagle dog at 200 mg/kg administered intramuscularly after 1 month; type: ADME, organism-based, Canis lupus familiaris; parameters: dose 200 mg/kg, route intramuscular; details: im
[24] = Ratio of drug level in spleen to plasma in female Beagle dog at 200 mg/kg, sc after 3 months; type: ADME, organism-based, Canis lupus familiaris; parameters: dose 200 mg/kg, route subcutaneous
[25] = Ratio of drug level in spleen to plasma in female Beagle dog at 400 mg/kg, sc after 3 months; type: ADME, organism-based, Canis lupus familiaris; parameters: dose 400 mg/kg, route subcutaneous
Canis familiaris [26] = assay: Toxicity in Beagle dog assessed as irritation at 20 mg/kg administered intramuscularly after 3 months; type: organism-based, Canis lupus familiaris; parameters: dose 20 mg/kg, route intramuscular; details: in vivo, im, 2191.5 h
Canis familiaris [27] = assay: Toxicity in Beagle dog assessed as abscess formation at 20 mg/kg, sc after 3 months; type: organism-based, Canis lupus familiaris; parameters: dose 20 mg/kg, route subcutaneous; details: in vivo, 2191.5 h
[28] = Tmax in female dog at 400 mg administered intramuscularly after 29 days; details: in vivo, im
[29] = Tmax in female dog at 200 mg administered intramuscularly after 85 days; details: in vivo, im
[30] = Cmax in female dog at 400 mg administered intramuscularly after 85 days; details: in vivo, im
[31] = AUC (0 to last) in male dog at 200 mg administered intramuscularly after 85 days; details: plasma, im

Question: With `Cc1cc(/C=C/C#N)cc(C)c1Nc1ccnc(Nc2ccc(C#N)cc2)n1` [RILPIVIRINE] as the molecule, how does the Tmax [1] read?
Answer: Its Tmax is 30 min.

Question: What about the concentration at 4383 h [2] of the same molecule?
Answer: Its concentration at 4383 h is 48 ng/g.

Question: What about the concentration at 2191.5 h [3] of the same molecule?
Answer: The concentration at 2191.5 h was 84.1 ng/g.

Question: What about the concentration at 4383 h [4] of the same molecule?
Answer: Its concentration at 4383 h is < 5 ng/g.

Question: What about the concentration at 2191.5 h [5] of the same molecule?
Answer: The concentration at 2191.5 h was 12.4 ng/g.

Question: What about the concentration at 2191.5 h [6] of the same molecule?
Answer: Its concentration at 2191.5 h is 22.1 ng/g.

Question: And the concentration at 2191.5 h [7]?
Answer: Its concentration at 2191.5 h is 109 ng/g.

Question: And the Kp at 730.5 h [8]?
Answer: The Kp at 730.5 h was 2.2.

Question: What about the Kp at 730.5 h [9] of the same molecule?
Answer: Its Kp at 730.5 h is 6.

Question: What about the Kp at 730.5 h [10] of the same molecule?
Answer: The Kp at 730.5 h was 4.

Question: What about the concentration at 2191.5 h [11] of the same molecule?
Answer: The concentration at 2191.5 h was 20.8 ng/g.

Question: And the concentration at 2191.5 h [12]?
Answer: The concentration at 2191.5 h was 45.6 ng/g.

Question: And the Kp at 2191.5 h [13]?
Answer: Its Kp at 2191.5 h is 14.

Question: And the concentration at 2191.5 h [14]?
Answer: Its concentration at 2191.5 h is 10 ng/g.

Question: And the concentration at 4383 h [15]?
Answer: Its concentration at 4383 h is 7.8 ng/g.

Question: What about the Kp at 4383 h [16] of the same molecule?
Answer: The Kp at 4383 h was 6.1.

Question: What about the concentration at 4383 h [17] of the same molecule?
Answer: Its concentration at 4383 h is 7.1 ng/g.

Question: And the concentration at 2191.5 h [18]?
Answer: The concentration at 2191.5 h was 43.6 ng/g.

Question: What about the concentration at 730.5 h [19] of the same molecule?
Answer: The concentration at 730.5 h was 95 ng/mL.

Question: And the concentration at 730.5 h [20]?
Answer: Its concentration at 730.5 h is 606 ng/g.

Question: What about the concentration at 730.5 h [21] of the same molecule?
Answer: The concentration at 730.5 h was 142 ng/g.

Question: What about the concentration at 730.5 h [22] of the same molecule?
Answer: Its concentration at 730.5 h is 353 ng/g.

Question: And the Kp at 730.5 h [23]?
Answer: The Kp at 730.5 h was 5.7.

Question: And the Kp at 2191.5 h [24]?
Answer: Its Kp at 2191.5 h is 1.9.

Question: And the Kp at 2191.5 h [25]?
Answer: The Kp at 2191.5 h was 1.9.

Question: And the Activity (Canis familiaris [26])?
Answer: The Activity was “Non-toxic”.

Question: And the Activity (Canis familiaris [27])?
Answer: Its Activity is “Non-toxic”.

Question: And the Tmax [28]?
Answer: The Tmax was 498 min.

Question: And the Tmax [29]?
Answer: Its Tmax is 33 min.

Question: And the Cmax [30]?
Answer: The Cmax was 5260 ng/mL.

Question: And the AUC(0-t) at 2040 h [31]?
Answer: The AUC(0-t) at 2040 h was 148 µg·h/mL.
